Results as given in patent publication US8129425B2, “Small organic molecule regulators of cell proliferation” (Curis, Inc., priority 2000, dated 2012).
“Also recorded” adds a separate entry of the source.

What was measured:
[1] = system: cerebellar neuron precursors; assay: Cerebellar neuron precursor proliferation (3H-thymidine incorporation); assay type: cell-based, rat; conditions: for induction of 3H thymidine incorporation: absence of Shh
Protocol: In order to test the efficacy of Hedgehog signaling agonists, the ability of the agonists to stimulate the proliferation of cerebellar neuron precursors was determined. Cerebellar granule neuron precursors are known to respond to Hh protein by proliferating. To test the agonists, cerebellar neurons were dissected out of postnatal (one week) rat brains, and placed into primary cell culture. Treatment agents were added once, on the first day of culture (0 DIV). Cells were left in culture until 2 DIV, when 3H-thymidine was added for 5 hours; the amount of incorporation by the cells of this 3H-thymidine provides a measure of the level of proliferation of the cells. Cells were then lysed, and the incorporation of 3H-thymidine was determined. The positive control was Hh protein, at 1.0 μg/ml final concentration. Hh protein alone caused approximately a 20-fold increase in 3H-thymidine incorporation, consistent with the known ability of Shh to stimulate proliferation of these cells. Non-Hh-protein-stimulated cells, including cells treated with control vehicle (DMSO), had very low levels of proliferation. […] At 5.0 μM, the p-cyanophenyl compound B caused 10.2-fold induction of 3H-thymidine incorporation. […] At 1.0, 0.3, or 0.1 μM, D caused 16-, 17-, or 13-fold induction, respectively, of 3H thymidine incorporation into the cells.

[2] = system: patched (ptc-lacZ β-galactosidase reporter); assay: Ptc-lacZ reporter mice assay (X-gal staining of tissues); assay type: in vivo
Protocol: Mice with a β-galactosidase transgene (ptc-lacZ mice) under the regulatory control of the patched locus express the β-galactosidase protein in the same cells where the endogenous mouse patched gene is expressed. The β-galactosidase protein can thus be used as a faithful reporter of the expression of the endogenous patched gene.
Ptc-lacZ mice were divided into four treatment groups and were treated with the following compounds or combinations of compounds for four days, beginning on the first day after birth (dipal-Shh=dipalmitoylated Sonic hedgehog):
The vehicle for the agonist was 10% DMSO in PBS (pH 7.2). The agonist was injected from a 4.67 mM stock dissolved in the vehicle solution.
18 hours following the last injections, the mice were sacrificed and the following tissues were collected: skull, kidney, lung, scapula, skin and heart. All tissues were fixed in 0.2% glutaraldehyde, 5 mM EDTA (pH 8.0), 20 mM MgCl2, 100 mM Na2HPO4 for 30 minutes before staining in 1 mg/ml X-gal, 12.5 mM potassium ferrocyanide, 12.5 mM potassium ferricyanide, 2 mM MgCl2, 0.01% deoxycholate, 0.02% NP-40, and 100 mM Na2HPO4 for 30 hours. Tissues were judged for relative intensity and photographed.
FIG. 42: Ptc-lacZ mice were divided into two treatment groups and were treated with the following compounds for three days, beginning on the first day after birth:
The vehicle for the agonist was 10% DMSO in PBS (pH 7.2). The agonist was injected from a 1.0 mM stock dissolved in the vehicle solution.
Eighteen hours following the last injections, the mice were sacrificed and the forelimbs were collected and processed as described above.
In a third experiment, Ptc-lacZ mice were divided into five treatment groups and were treated with the following compounds for four days, beginning on the first day after birth:
The vehicle for the agonist was 10% DMSO in PBS (pH 7.2). The agonist was injected from stocks of 0.3, 0.1 and 0.03 mM dissolved in the vehicle solution.

In the case of CNC1CCC(N(Cc2ccc(OC)c(-c3ccc(C#N)cc3)c2)C(=O)c2sc3ccccc3c2Cl)CC1 (stereo not drawn) [D], the “induction of 3H thymidine incorporation” value ([1]; 0.1 μM) is reported as 13 fold, the “induction of 3H thymidine incorporation” value ([1]; 0.3 μM) is reported as 17 fold and the “induction of 3H thymidine incorporation” value ([1]; 1.0 μM) is reported as 16 fold. For the same compound, the “stimulation of 3H-thymidine incorporation” value ([1]; absence of Hh protein treatment) was “strongly stimulated 3H-thymidine incorporation”, the “upregulation of hedgehog pathway in forelimbs (β-galactosidase staining)” value (“upregulation of hedgehog pathway” for short) ([2]; 0.1 mg/kg/injection 4X/day, four days) was “very weak upregulation” and the “upregulation of hedgehog pathway” value ([2]; 0.3 mg/kg/injection 4X/day, four days) was “greater than that seen with injections of Hh protein at 10 mg/kg/injection”. For the same compound, the “upregulation of hedgehog pathway” value ([2]; 0.9 mg/kg/injection 4X/day, four days) was “highest levels of upregulation; also recorded: greater than that seen with injections of Hh protein at 10 mg/kg/injection”, the “upregulation of hedgehog pathway” value ([2]; 4 mg/kg/injection 4X/day, three days, absence of dipal-Shh) was “strong upregulation in the nerves, blood vessels, cartilage, and connective tissue; also recorded: greater than that seen with injections of dipal-Shh at 10 mg/kg/injection” and the “dose dependence of hedgehog pathway upregulation in vivo” value ([2]; 0.1-0.9 mg/kg/injection 4X/day) was “dose-responsive manner”.
